The source of these data is article PMC5402304, “Oxoaporphine Metal Complexes (Co^II, Ni^II, Zn^II) with High Antitumor Activity by Inducing Mitochondria-Mediated Apoptosis and S-phase Arrest in HepG2” (Scientific Reports, 2017).

Several values for one entry are separate records, joined by “and”; a condition that tells them apart may be missing. Identical values can stand only once.

For one series, the system named is BEL-7404. As to the kind of experiment: MTT cytotoxicity assay, BEL-7404. The series is classed as cell-based, human. The protocol: (§1) The in vitro cytotoxicity of OD, 1–3 and the corresponding metal salts were determined by MTT assay towards a panel of human tumor cells including HepG2, T-24, BEL-7404, MGC80-3, SK-OV-3/DDP and normal HL-7702 cells. As the positive control, cisplatin was dissolved at a concentration of 1 mM in 0.154 M NaCl[32].
(§2) The human tumor cell lines (BEL-7404, HepG2, MGC80–3, T-24, SK-OV-3/DDP and HeLa cells) and the human normal liver cell line HL-7702 were obtained from Shanghai Cell Bank in Chinese Academy of Sciences. Cells were cultured in Dulbecco’s modified Eagle’s medium (DMEM) or RPMI-1640 medium, which supplemented with 10% fetal bovine serum (FBS) and 100 U/mL penicillin and streptomycin. Cells were cultured at 37 °C in a humidified atmosphere with 5% CO2/95% air. Tested compounds (2.0 mM) were prepared as DMSO stock solution before they were diluted to working concentrations by PBS buffer (containing 0.5% DMSO), while cisplatin dissolved in 0.9% sodium chloride solution was used as positive controls.
(§3) Cells in their logarithmic phase were seeded in 96-well plates with 5.5 × 10^3/180 μL per well for 24 h. Then 20 μL of compounds at various concentrations were added to each well to achieve final concentrations of 1.25, 2.5, 5.0, 10.0, and 20.0 μM. All the cells were incubated with test compounds for another 48 h before MTT assay. Control wells contained media with 0.5% DMSO. After 48 h of cultivation, 10 μL of MTT (5 mg/mL in PBS) was added to each well, and cells were incubated at 37 °C for 6 h. The contents in the wells were pipetted out carefully, and the formazan crystals formed were dissolved in 100 μL of DMSO, and the absorbance was measured by enzyme labeling instrument with 490 nm/630 nm double wavelength measurement. The IC50 value was defined as a drug concentration killing 50% cells in comparison with untreated controls, which was calculated by the Bliss method (n = 5). All tests were repeated in at least three independent trials.

In a further series the test system is caspase-8. As to the kind of experiment: Caspase-8 activation by flow cytometry (CaspGLOW). The series is classed as cell-based, human. The conditions noted are these: HepG2, 1.0 μM, 24 h; control 1.8%. The procedure:
(§4) Caspase family is closely related to the cell apoptosis via the mitochondrial pathway, especially caspases-3, -8 and -9. To better understand the antitumor mechanisms, it needs to confirm whether caspase-3, -8 and -9 are activated when the tumor cells are treated with 1–3.
(§5) The measurement of caspase-3, -8 and -9’s activities was performed by CaspGLOW fluorescein active caspase-3, -8 and -9 staining kit. HepG2 cells were treated with 1 μM 1–3 for 24 h, harvested at a density of 1 × 10^6 cells/mL, and then suspended in 300 μL volume with PBS. To the suspension, 1 μL of caspase-3 inhibitor (FITC-DEVD-FMK), caspase-8 inhibitor (FITC-IETD-FMK) or caspase-9 inhibitor (FITC-LEHD-FMK) was consequently added and incubated for 1 h at 37 °C in 5% CO2 incubator. The cells were then examined by a FACSAria II flow cytometer equipped with a 488 nm argon laser. The results were represented as the percent change on the activity compared with the control.

A short description of series [1]: Solution stability by HPLC. Format: physicochemical. The conditions noted are these: TBS; 0 and 24 h; mobile phase methanol/H2O 80/20. The protocol:
The stability of 1–3 in Tris-HCl buffer solution (TBS, pH = 7.35, containing 1% DMSO) for 0, 12 and 48 h were primarily analyzed by means of UV-Vis spectroscopy, as shown in Figure S1.
The stability of 1–3 under physiological conditions ([…] buffer solution with pH value of 7.35, containing 1% DMSO), was carried out using UV-vis spectroscopy and HPLC. 1–3 were dissolved in DMSO at 1 × 10^−3 M, and then diluted by buffer solution. The UV-vis absorbance of these complexes at 0 h, 12 h and 48 h were measured, respectively. The solution stability of 3 was further confirmed by HPLC experiments. 3 in aqueous solution at 1.0 mg · mL^−1 was analyzed by HPLC at 0 h and 24 h respectively, with reversed-phase C18 column and methol/H2O (80:20) as mobile phase.

A further series concerns HL-7702. The series can be described thus: MTT cytotoxicity assay, normal liver cells HL-7702. The series is classed as cell-based, human. The conditions noted are these: 48 h. The protocol:
as §1, §2, §3

The test system of the next series is caspase-3. As to the kind of experiment: Caspase-3 activation by flow cytometry (CaspGLOW). The series is classed as cell-based, human. The conditions noted are these: HepG2, 1.0 μM, 24 h; control 4.2%. The procedure:
as §4, §5

A further series has as its system cleaved PARP. The series can be described thus: Western blot of cleaved PARP in HepG2 cells. Format: cell-based, human. The conditions noted are these: 24 h. The protocol:
During the caspases-activated apoptotic cascades, mitochondrial apoptotic genes Apaf-1, PARP play an important role. The expressions of Apaf-1, pro-PARP and cleaved PARP in HepG2 cells treated with 3 were carried out by Western blotting. […] The expression of Apaf-1 protein was further confirmed by RT-PCR (Fig. 13C) that the up-regulation of Apaf-1 was also observed. PARP was considered to be an important indicator of cell apoptosis, and the cleaved PARP could cause cellular inactivation and prevent DNA repair.
After incubated with 1–3 (1.0 μM) for 24 h, HepG2 cells were harvested and lysed in 150 μL of lysed buffer (149 μL RIPA and 1 μL PMSF), and then placed on ice for 15 min. The total proteins were extracted by centrifuging the cell sample at 10000 rpm at 4 °C for 10 min. Then about 50 μg of purified proteins were mixed with equal volume of electrophoresis sample buffer, and the mixture was boiled for 10 min. Meanwhile the equal protein content from the control cells was prepared in the same way. The cell sample (10 μL) was loaded onto 10% SDS-PAGE gels and then transferred onto a microporous polyvinylidene difluoride (PVDF) membrane. The membrane was blocked with 5% BSA in TBST buffer for more than 2 h. […] The immunoreactive signals were detected using an enhanced chemo-luminance kit (Pierce ECL Western Blotting Substrate) following the procedures given in the user manual.

The next series relates to HepG2 xenograft. The series can be described thus: HepG2 xenograft nude mice model, tumor growth inhibition. Format: in vivo, BALB/c nude mice.
A further series relates to caspase-9. The series can be described thus: Caspase-9 activation by flow cytometry (CaspGLOW). Format: cell-based, human. Particulars: HepG2, 1.0 μM, 24 h; control 1.9%. The protocol:
as §4, §5

Experimental for HepG2 xenograft: The mice were randomized into control group, 3-treated groups and positive control group (n = 6). Once the tumor had grown to an average volume of about 100 mm^3, two group of nude mice were injected intraperitoneally (ip) of 3 at a high dose (6.0 mg/kg) and a low (3.0 mg/kg) dose daily for 20 days, respectively. Cisplatin was used as positive control injected at 2.0 mg/kg every two days, while control group received solvents only.
BALB/c nude mice (male, 17–20 g, 5–6 weeks old) were supplied by Guangxi Medical University Laboratory Animal Centre (Guangxi, China, approval no. SCXK 2014–0002 and SYXK 2014–0003). All of the experimental procedures were carried out according to the NIH Guidelines for the Care and Use of Laboratory Animals. Animal experiments were approved by the Animal Care and Use Committee of Guangxi Medical University. Animal were housed at IVC system (individual ventilated caging) with conditions of constant photoperiod (12 h light/12 h dark at 25−28 °C and 45−65% humidity). The xenograft tumor model was established in the same way as we reported before[30]. The maximum solubility of 3 in DMSO/saline solvent (v/v, 5/100) with administration volume 0.8 mL/20 g was used as the high dose (6.0 mg/kg) group (n = 6). Meanwhile low dose group mice got 3.0 mg/kg, intraperitoneal injection every day, and the control group received corresponding solvent. The positive control group was administered with cisplatin at 2.0 mg/kg every two days by intraperitoneal injection (cisplatin dissolved in saline).
The tumor volumes and body weight were measured every 3 days, and tumor size was calculated as volume = (w^2l)/2, where w is the width and l is the length in mm of tumor[70]. On day 21, the mice were sacrificed, and the tumor tissue was dissected out and weighted. The in vivo antitumor activity is evaluated by two indicators[71][72]: the tumor relative increment rate (T/C = TRTV/CRTV × 100%) and tumor weight inhibition rate [IR = (Wc − Wt)/Wc × 100%,], where TRTV and CRTV were the RTV of treated group and control group, respectively (RTV: relative tumor volume, RTV = Vt /V0); Wt and Wc are the average tumor weight of complex-treated and vehicle controlled group, respectively.

[Zn(OD)2(H2O)2] (ClO4)2 [Complex 3]: the inhibitive ratio with BEL-7404 (BEL-7404, 20 μmol/L, 48 h) came to 61.00±0.19%; in the series on HL-7702 (HL-7702, 20 μmol/L), 59.26±0.15%. Moreover, the concentration for half-maximal inhibition (IC50) in the series on BEL-7404 (BEL-7404, 48 h, MTT) was 12.6 ± 0.45 µM; with HL-7702 (HL-7702 normal liver cells, MTT) it was 7.13 ± 0.46 µM. Moreover, the “proportion of activated caspase-8” value in the series on caspase-8 stood at 41.5%. Further, in series [1], the “stability in solution (HPLC chromatograms)” value is given as “no obvious changes of HPLC chromatograms”. For the same substance, the “proportion of activated caspase-3” value in the series on caspase-3 was 36.9% and 36.5%. The “increment of cleaved PARP” value with cleaved PARP is “approximately 70 fold”. For the same substance, the “IR (tumor weight inhibition rate)” value came out at 26.4% with HepG2 xenograft (3.0 mg/kg ip daily for 20 days) and 32.8% in the series on HepG2 xenograft (6.0 mg/kg ip daily for 20 days). For the same substance, the figures for the “T/C (tumor relative increment rate)” value in the series with HepG2 xenograft (3.0 mg/kg ip daily for 20 days) and in the series on HepG2 xenograft (6.0 mg/kg ip daily for 20 days) were 75.49% and 55.57%, respectively. In the series with caspase-9, the “proportion of activated caspase-9” value amounted to 32.6%.
